# Measured values: patent US10689399B2, “Substituted 3,4,5,6,8,10,14,14a-octahydro-2h-2,6-methanopyrido[1′,2′:4,5]pyrazino[2,1-b][1,3]oxazocines and methods for treating viral infections” (Gilead Sciences, Inc., priority 2012, dated 2020)
# Tested on: HIV-IIIb
# Assay: Antiviral assay in MT4 cells
# Assay type: cell-based
# Conditions: Human immunodeficiency virus 1, IIIB, MT4, 120 h, MT4 cells infected with HIV-IIIb, 5 days, CellTiter-Glo; read-out: EC50 nM in MT-4
# Outline: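 MT4 cells pre-infected with HIV-IIIb (0.004 m.o.i.) at 37 °C, or mock-infected, then seeded at 2000 cells/well onto 3-fold serially diluted compound (10 concentrations, quadruplicate) in RPMI 1640 with 10% FBS. After 5 days at 37 °C, cell viability read by CellTiter-Glo luminescence.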
row,SMILES,EC50 [nM]
1,"O=C(NCc1ccc(F)c(F)c1)c1cn2c(c(O)c1=O)C(=O)N1[C@H]3CC[C@H](C3)[C@@H]1C2 [Compound 66, (1R,4S,12aR)—N-(3,4-difluorobenzyl)-7-hydroxy-6,8-dioxo-1,2,3,4,6,8,12,12a-octahydro-1,4-methanodipyrido[1,2-a:1′,2′-d]pyrazine-9-carboxamide]",9.4
2,"O=C(NCc1ccc(F)cc1C(F)(F)F)c1cn2c(c(O)c1=O)C(=O)N1[C@H]3CC[C@H](C3)[C@@H]1C2 [Compound 67, (1R,4S,12aR)—N-(4-fluoro-2-(trifluoromethyl)benzyl)-7-hydroxy-6,8-dioxo-1,2,3,4,6,8,12,12a-octahydro-1,4-methanodipyrido[1,2-a:1′,2′-d]pyrazine-9-carboxamide]",10.7
3,"O=C(NCc1ccc(F)cc1Cl)c1cn2c(c(O)c1=O)C(=O)N1[C@H]3CC[C@H](C3)[C@@H]1C2 [Compound 68, (1R,4S,12aR)—N-(2-chloro-4-fluorobenzyl)-7-hydroxy-6,8-dioxo-1,2,3,4,6,8,12,12a-octahydro-1,4-methanodipyrido[1,2-a:1′,2′-d]pyrazine-9-carboxamide]",2.7
4,"O=C(NCc1ccc(F)c(Cl)c1F)c1cn2c(c(O)c1=O)C(=O)N1[C@H]3CC[C@H](C3)[C@@H]1C2 [Compound 69, (1R,4S,12aR)—N-(3-chloro-2,4-difluorobenzyl)-7-hydroxy-6,8-dioxo-1,2,3,4,6,8,12,12a-octahydro-1,4-methanodipyrido[1,2-a:1′,2′-d]pyrazine-9-carboxamide]",1.9
5,"Cc1cccc(CNC(=O)c2cn3c(c(O)c2=O)C(=O)N2[C@H]4CC[C@H](C4)[C@@H]2C3)c1F [Compound 70, (1R,4S,12aR)—N-(2-fluoro-3-methylbenzyl)-7-hydroxy-6,8-dioxo-1,2,3,4,6,8,12,12a-octahydro-1,4-methanodipyrido[1,2-a:1′,2′-d]pyrazine-9-carboxamide]",5.1
6,"O=C(NCc1c(Cl)ccc(Cl)c1F)c1cn2c(c(O)c1=O)C(=O)N1[C@H]3CC[C@H](C3)[C@@H]1C2 [Compound 71, (1R,4S,12aR)—N-(3,6-dichloro-2-fluorobenzyl)-7-hydroxy-6,8-dioxo-1,2,3,4,6,8,12,12a-octahydro-1,4-methanodipyrido[1,2-a:1′,2′-d]pyrazine-9-carboxamide]",2.6
7,"O=C(NCc1cccc(Cl)c1)c1cn2c(c(O)c1=O)C(=O)N1[C@H]3CC[C@H](C3)[C@@H]1C2 [Compound 72, (1R,4S,12aR)—N-(3-chlorobenzyl)-7-hydroxy-6,8-dioxo-1,2,3,4,6,8,12,12a-octahydro-1,4-methanodipyrido[1,2-a:1′,2′-d]pyrazine-9-carboxamide]",4.3
8,"O=C(NCc1c(F)ccc(Cl)c1F)c1cn2c(c(O)c1=O)C(=O)N1[C@H]3CC[C@H](C3)[C@@H]1C2 [Compound 73, (1R,4S,12aR)—N-(3-chloro-2,6-difluorobenzyl)-7-hydroxy-6,8-dioxo-1,2,3,4,6,8,12,12a-octahydro-1,4-methanodipyrido[1,2-a:1′,2′-d]pyrazine-9-carboxamide]",1.8
9,"O=C(NCc1cccc(C(F)(F)F)c1F)c1cn2c(c(O)c1=O)C(=O)N1[C@H]3CC[C@H](C3)[C@@H]1C2 [Compound 74, (1R,4S,12aR)—N-(2-fluoro-3-(trifluoromethyl)benzyl)-7-hydroxy-6,8-dioxo-1,2,3,4,6,8,12,12a-octahydro-1,4-methanodipyrido[1,2-a:1′,2′-d]pyrazine-9-carboxamide]",29.3
10,"O=C(NCc1ccc(F)c(Cl)c1)c1cn2c(c(O)c1=O)C(=O)N1[C@H]3CC[C@H](C3)[C@@H]1C2 [Compound 75, (1R,4S,12aR)—N-(3-chloro-4-fluorobenzyl)-7-hydroxy-6,8-dioxo-1,2,3,4,6,8,12,12a-octahydro-1,4-methanodipyrido[1,2-a:1′,2′-d]pyrazine-9-carboxamide]",2.8
11,"O=C(NCc1ncc(F)cc1F)c1cn2c(c(O)c1=O)C(=O)N1[C@H]3CC[C@H](C3)[C@@H]1C2 [Compound 76, (1R,4S,12aR)—N-((3,5-difluoropyridin-2-yl)methyl)-7-hydroxy-6,8-dioxo-1,2,3,4,6,8,12,12a-octahydro-1,4-methanodipyrido[1,2-a:1′,2′-d]pyrazine-9-carboxamide]",17.8
12,"C[C@@H](NC(=O)c1cn2c(c(O)c1=O)C(=O)N1[C@H]3CC[C@H](C3)[C@@H]1C2)c1c(F)cc(F)cc1F [Compound 77, (1R,4 S,12aR)-7-hydroxy-6,8-dioxo-N—((R)-1-(2,4,6-trifluorophenyl)ethyl)-1,2,3,4,6,8,12,12a-octahydro-1,4-methanodipyrido[1,2-a:1′,2′-d]pyrazine-9-carboxamide]",5.6
13,"C[C@@H](NC(=O)c1cn2c(c(O)c1=O)C(=O)N1[C@@H]3CC[C@H](C3)O[C@@H]1C2)c1c(F)cc(F)cc1F [Compound 78, (2R,13aR)-8-hydroxy-7,9-dioxo-N—((R)-1-(2,4,6-trifluorophenyl)ethyl)-2,3,4,5,7,9,13,13a-octahydro-2,5-methanopyrido[1%2′: 4,5]pyrazino[2,1-b][1,3]oxazepine-10-carboxamide]",5.6
14,"O=C(NCc1cc(F)c(F)cc1F)c1cn2c(c(O)c1=O)C(=O)N1[C@H]3CC[C@H](C3)[C@@H]1C2 [Compound 79, (1R,4S,12aR)-7-hydroxy-6,8-dioxo-N-(2,4,5-trifluorobenzyl)-1,2,3,4,6,8,12,12a-octahydro-1,4-methanodipyrido[1,2-a:1′,2′-d]pyrazine-9-carboxamide]",3.4
15,"O=C(NCc1cc(Cl)c(F)cc1F)c1cn2c(c(O)c1=O)C(=O)N1[C@H]3CC[C@H](C3)[C@@H]1C2 [Compound 80, (1R,4S,12aR)—N-(5-chloro-2,4-difluorobenzyl)-7-hydroxy-6,8-dioxo-1,2,3,4,6,8,12,12a-octahydro-1,4-methanodipyrido[1,2-a:1′,2′-d]pyrazine-9-carboxamide]",4.6
16,"O=C(NCc1c(F)cc(F)cc1F)c1cn2c(c(O)c1=O)C(=O)N1[C@H](C2)[C@H]2C[C@H](F)[C@@H]1C2 [Compound 81, (1R,3S,4S,12aS)-3-fluoro-7-hydroxy-6,8-dioxo-N-(2,4,6-trifluorobenzyl)-1,2,3,4,6,8,12,12a-octahydro-1,4-methanodipyrido[1,2-a:1′,2′-d]pyrazine-9-carboxamide]",1.9
17,"O=C(NCc1c(F)cc(F)cc1F)c1cn2c(c(O)c1=O)C(=O)N1[C@@H]3C[C@@H](C[C@H]3F)[C@@H]1C2 [Compound 82, (1S,3R,4R,12aR)-3-fluoro-7-hydroxy-6,8-dioxo-N-(2,4,6-trifluorobenzyl)-1,2,3,4,6,8,12,12a-octahydro-1,4-methanodipyrido[1,2-a:1′,2′-d]pyrazine-9-carboxamide]",2.9
18,"O=C(NCc1c(F)cc(F)cc1F)c1cn2c(c(O)c1=O)C(=O)N1[C@H](C2)[C@H]2C[C@@H]1C(F)(F)C2 [Compound 83, (1S,4R,12aS)-3,3-di fluoro-7-hydroxy-6,8-dioxo-N-(2,4,6-trifluorobenzyl)-1,2,3,4,6,8,12,12a-octahydro-1,4-methanodipyrido[1,2-a:1′,2′-d]pyrazine-9-carboxamide]",1.9
19,"C[C@@H]1C[C@H]2C[C@@H]1[C@@H]1Cn3cc(C(=O)NCc4c(F)cc(F)cc4F)c(=O)c(O)c3C(=O)N21 [Compound 84, (1S,2R,4 S,12aR)-7-hydroxy-2-methyl-6,8-dioxo-N-(2,4,6-trifluorobenzyl)-1,2,3,4,6,8,12,12a-octahydro-1,4-methanodipyrido[1,2-a:1′,2′-d]pyrazine-9-carboxamide]",2.9
20,"O=C(NCc1c(F)cc(F)cc1F)c1cn2c(c(O)c1=O)C(=O)N1[C@H]3CCC[C@H](C3)[C@H]1C2 [Compound 85, (6 aS,7R,11S)-1-hydroxy-2,13-dioxo-N-(2,4,6-trifluorobenzyl)-6,6a,7,8,9,10,11,13-octahydro-2H-7,11-methanopyrido[1′,2′: 4,5]pyrazino[1,2-a]azepine-3-carboxamide]",2
21,"C[C@H]1C[C@@H]2C[C@H]1N1C(=O)c3c(O)c(=O)c(C(=O)NCc4c(F)cc(F)cc4F)cn3C[C@H]21 [Compound 86, (1R,3S,4R,12aS)-7-hydroxy-3-methyl-6,8-dioxo-N-(2,4,6-trifluorobenzyl)-1,2,3,4,6,8,12,12a-octahydro-1,4-methanodipyrido[1,2-a:1′,2′-d]pyrazine-9-carboxamide]",2.3
22,"O=C(NCc1cccc(Cl)c1F)c1cn2c(c(O)c1=O)C(=O)N1[C@H]3CC[C@H](C3)O[C@@H]1C2 [Compound 88, (2R,5S,13aR)—N-(3-chloro-2-fluorobenzyl)-8-hydroxy-7,9-dioxo-2,3,4,5,7,9,13,13a-octahydro-2,5-methanopyrido[1′,2′:4,5]pyrazino[2,1-b][1,3]oxazepine-10-carboxamide]",2.9
23,"O=C(NCc1cc(F)ccc1F)c1cn2c(c(O)c1=O)C(=O)N1[C@H]3CC[C@H](C3)O[C@@H]1C2 [Compound 89, (2R,5S,13aR)—N-(2,5-difluorobenzyl)-8-hydroxy-7,9-dioxo-2,3,4,5,7,9,13,13a-octahydro-2,5-methanopyrido[1′,2′:4,5]pyrazino[2,1-b][1,3]oxazepine-10-carboxamide]",8.4
24,"O=C(NCc1cccc(Cl)c1F)c1cn2c(c(O)c1=O)C(=O)N1[C@H]3CC[C@H](C3)[C@@H]1C2 [Compound 90, (1R,4S,12aR)—N-(3-chloro-2-fluorobenzyl)-7-hydroxy-6,8-dioxo-1,2,3,4,6,8,12,12a-octahydro-1,4-methanodipyrido[1,2-a:1′,2′-d]pyrazine-9-carboxamide]",5.7
25,"O=C(NCc1ccc(F)c(F)c1F)c1cn2c(c(O)c1=O)C(=O)N1[C@H]3CC[C@H](C3)[C@@H]1C2 [Compound 91, (1R,4S,12aR)-7-hydroxy-6,8-dioxo-N-(2,3,4-trifluorobenzyl)-1,2,3,4,6,8,12,12a-octahydro-1,4-methanodipyrido[1,2-a:1′,2′-d]pyrazine-9-carboxamide]",5
